ChEMBL document CHEMBL1201862, “PubChem BioAssay data set” (2004)
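Compound exposure: 48 hours, 5 concentrations, 96-well plates. Here, GI50 denotes the concentration required for 50% inhibition of growth.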 The source made the active and inactive calls. Rule as the data show it: active = GI50 up to about 1.1 µM and inactive = higher.

Legend:
Assay in all cases: NCI tumour cell line growth inhibition, 48 h
SK-OV-3 = test system: SK-OV-3
OVCAR-8 = test system: OVCAR-8
SNB-19 = test system: SNB-19
UACC-62 = test system: UACC-62
EKVX = test system: EKVX
RPMI-8226 = test system: RPMI-8226
KM-20L2 = test system: KM-20L2
HOP-92 = test system: HOP-92
NCI-H226 = test system: NCI-H226
786-0 = test system: 786-0
M19-MEL = test system: M19-MEL
HCT-116 = test system: HCT-116
SN12C = test system: SN12C
DMS-114 = test system: DMS-114
NCI-H522 = test system: NCI-H522
OVCAR-3 = test system: OVCAR-3
SW-620 = test system: SW-620
Hs-578T = test system: Hs-578T
BT-549 = test system: BT-549
NCI/ADR-RES = test system: NCI/ADR-RES

SMILES	GI50 (SK-OV-3)	GI50 (OVCAR-8)	GI50 (SNB-19)	GI50 (UACC-62)	GI50 (EKVX)	GI50 (RPMI-8226)	GI50 (KM-20L2)	GI50 (HOP-92)	GI50 (NCI-H226)	GI50 (786-0)	GI50 (M19-MEL)	GI50 (HCT-116)	GI50 (SN12C)	GI50 (DMS-114)	GI50 (NCI-H522)	GI50 (OVCAR-3)	GI50 (SW-620)	GI50 (Hs-578T)	GI50 (BT-549)	GI50 (NCI/ADR-RES)
C=CC[C@H](C[C@H](C[C@H](C[C@H](C[C@H](C[C@H](C[C@H](C[C@H](C[C@H](C[C@H](CCCCC)OC)OC)OC)OC)OC)OC)OC)OC)OC)OC	> 100 µM (inactive)	> 100 µM (inactive)	83.2 µM (inactive)	> 100 µM (inactive)	> 100 µM (inactive)	52.4 µM (inactive)	> 100 µM (inactive)	> 100 µM (inactive)	62.2 µM (inactive)	> 100 µM (inactive)	> 100 µM (inactive)	82.6 µM (inactive)	> 100 µM (inactive)	52.6 µM (inactive)	66.2 µM (inactive)	> 100 µM (inactive)	> 100 µM (inactive)			
O=C1OC(=O)C2C1C1(c3ccccc3)OC2(c2ccccc2)c2c(Br)c(Br)c(Br)c(Br)c21 (stereo unspecified)	28.7 µM (inactive)	> 100 µM (inactive)	> 100 µM (inactive)	> 100 µM (inactive)	> 100 µM (inactive)	> 100 µM (inactive)	> 100 µM (inactive)	> 100 µM (inactive)	> 100 µM (inactive)	> 100 µM (inactive)	> 100 µM (inactive)	> 100 µM (inactive)	> 100 µM (inactive)	> 100 µM (inactive)	> 100 µM (inactive)	> 100 µM (inactive)	> 100 µM (inactive)			
O=c1[nH]c(Br)nc2c(Br)c[nH]c12	> 100 µM (inactive)	> 100 µM (inactive)	> 100 µM (inactive)	> 100 µM (inactive)	> 100 µM (inactive)	> 100 µM (inactive)	> 100 µM (inactive)	> 100 µM (inactive)	> 100 µM (inactive)	> 100 µM (inactive)	> 100 µM (inactive)	> 100 µM (inactive)	> 100 µM (inactive)	> 100 µM (inactive)	31.3 µM (inactive)	> 100 µM (inactive)	> 100 µM (inactive)			
Cc1cccc(C)c1NC(=O)C(=O)C(C#N)c1ccccc1Cl (stereo unspecified)	> 100 µM (inactive)	> 100 µM (inactive)	> 100 µM (inactive)	> 100 µM (inactive)	> 100 µM (inactive)	> 100 µM (inactive)	> 100 µM (inactive)	> 100 µM (inactive)	> 100 µM (inactive)	> 100 µM (inactive)	> 100 µM (inactive)	> 100 µM (inactive)	> 100 µM (inactive)	> 100 µM (inactive)	> 100 µM (inactive)	> 100 µM (inactive)	> 100 µM (inactive)			
C1OC1C1CO1 (stereo unspecified)	57.8 µM (inactive)	> 100 µM (inactive)	> 100 µM (inactive)	13.6 µM (inactive)	> 100 µM (inactive)	> 100 µM (inactive)	98.2 µM (inactive)	> 100 µM (inactive)	> 100 µM (inactive)	24.2 µM (inactive)	58.9 µM (inactive)	95.1 µM (inactive)	93.1 µM (inactive)	10.4 µM (inactive)	33.6 µM (inactive)	39.7 µM (inactive)	86.3 µM (inactive)			
CC#CC#C/C=C1\C=CC2(OC=CC2O)O1 (stereo unspecified)	> 23.3 µM (inactive)	14.3 µM (inactive)	> 23.3 µM (inactive)	9.59 µM (inactive)	> 9.86 µM (inactive)	13.4 µM (inactive)	3.94 µM (inactive)	7.13 µM (inactive)	> 15.8 µM (inactive)	> 16 µM (inactive)	15.3 µM (inactive)	8.04 µM (inactive)	> 23.3 µM (inactive)	7.38 µM (inactive)	5.65 µM (inactive)	7.52 µM (inactive)	8.28 µM (inactive)			
N[C@H](COCc1ccccc1)c1ccccc1	29.6 µM (inactive)	35.6 µM (inactive)	30.6 µM (inactive)	32.1 µM (inactive)	33 µM (inactive)	13.1 µM (inactive)	24.5 µM (inactive)	23.1 µM (inactive)	27.7 µM (inactive)	29.3 µM (inactive)	25 µM (inactive)	22.5 µM (inactive)	27.7 µM (inactive)	23.2 µM (inactive)	16.5 µM (inactive)	26.7 µM (inactive)	28.2 µM (inactive)			
CNCc1cc(OC)ccc1-c1ccc(OC)c(OC)c1OC	> 100 µM (inactive)	> 100 µM (inactive)	> 100 µM (inactive)	> 100 µM (inactive)	> 74.8 µM (inactive)	> 100 µM (inactive)	> 100 µM (inactive)	> 70.6 µM (inactive)	> 100 µM (inactive)	> 100 µM (inactive)	> 100 µM (inactive)	> 94.6 µM (inactive)	> 100 µM (inactive)	60.8 µM (inactive)	> 100 µM (inactive)	> 70 µM (inactive)	> 96.4 µM (inactive)			
CCc1cccc(C(C)C)c1NC(=O)C(=O)C(Cc1nc2ccccc2nc1O)C(=O)OC (stereo unspecified)	> 100 µM (inactive)	> 100 µM (inactive)	> 100 µM (inactive)	> 100 µM (inactive)	5.19 µM (inactive)	39.2 µM (inactive)	> 100 µM (inactive)	> 100 µM (inactive)	> 100 µM (inactive)	> 100 µM (inactive)	> 100 µM (inactive)	40.7 µM (inactive)	> 100 µM (inactive)	14.3 µM (inactive)	98.4 µM (inactive)	> 100 µM (inactive)				
COc1c(O)c2c(c3cc(C(=O)N4CCc5c4c(O)c(OC)c4[nH]c(C(=O)N6CC7CC78C6=CC(=O)c6[nH]cc(C)c68)cc54)[nH]c13)CCN2C(N)=O (stereo unspecified) [CC-1065]	0.00217 µM (active)	0.000317 µM (active)	0.00457 µM (active)	0.00187 µM (active)	0.867 µM (active)	0.027 µM (active)	0.00334 µM (active)	0.00306 µM (active)	0.000212 µM (active)	0.000381 µM (active)	0.0048 µM (active)	0.000207 µM (active)	0.000685 µM (active)	0.0025 µM (active)	0.0205 µM (active)	0.0197 µM (active)	0.00105 µM (active)	0.294 µM (active)	1.04 µM (active)	
SCc1ccc(-c2ccc(CS)cc2)cc1	17.6 µM (inactive)	21.3 µM (inactive)	18.3 µM (inactive)	14.9 µM (inactive)	26 µM (inactive)	8.77 µM (inactive)	23.6 µM (inactive)	17.9 µM (inactive)	18.4 µM (inactive)	23.2 µM (inactive)	18.6 µM (inactive)	7.55 µM (inactive)	26.3 µM (inactive)	12.5 µM (inactive)	17.8 µM (inactive)	16.4 µM (inactive)	22.2 µM (inactive)	3.98 µM (inactive)	2.42 µM (inactive)	7.16 µM (inactive)
